Measured values from US20120095059A1, “Compositions and Methods for Treating Type II Diabetes and Related Disorders” (priority 2010, published 2012).

Key:
[1] = test system: patients with type 2 diabetes; assay: 12-week, double blind, randomized, parallel group, multi-center study of pioglitazone, glimepiride or their combination; format: in vivo, human; settings: after 12 weeks, pioglitazone 15 mg per day, glimepiride 2 mg per day, or both; for HbA1c levels, change from baseline: baseline HbA1c greater than 8%
Experimental: Objective: […] Research Design and Methods: The study was a 12-week, double blind, randomized, parallel group, multi-center study, with 120 patients randomized to receive pioglitazone (15 mg per day), glimepiride (2 mg per day), or a combination of pioglitazone plus glimepiride (15 mg per day; 2 mg per day). Patients started a strict dietary regimen 1 week before receiving the first dose of each treatment. The study was open to patients with type 2 diabetes mellitus and having HbA1c levels greater than 8%. Patients were over 30 years of age and have had diabetes for at least 1 year.

[2] = test system: patients with advanced type 2 diabetes; assay: Predicted effect of adding metformin as a third agent, based upon a meta-analysis of metformin clinical trials; format: in vivo, human; settings: metformin added as third agent to pioglitazone plus glimepiride
From the text: Patients having HbA1c levels greater than 7% have a high risk for developing cardiovascular disease and other complications of diabetes. Thus, in these patients, it is necessary to add a third agent to the regimen in order to obtain HbA1c values below 7%. Based upon a meta-analysis of metformin clinical trials, the addition of metformin as a third agent to this regimen will produce an additional reduction in HbA1c of about 1% and will contribute to adequate glycemic control in such patients with advanced type 2 diabetes. The addition of metformin in this triple therapy provides a synergistic mechanism of action, both improving insulin sensitivity and suppressing hepatic glucose output.

[3] = test system: patients with type 2 diabetes mellitus; settings: monotherapy; Rosenstock et al., Diabetes Care 25:1529-1533 (2002); cited from earlier work

Row | Structure (SMILES) | fasting blood glucose, decrease from baseline [1] [mg/dL] | HbA1c levels, change from baseline [1] [%] | additional reduction in HbA1c [2] | reduction in HbA1c [3] [%]
1 | CCC1=C(C)CN(C(=O)NCCc2ccc(S(=O)(=O)NC(=O)N[C@H]3CC[C@H](C)CC3)cc2)C1=O [glimepiride] | -22 | −0.98 | – | –
2 | CN(C)C(=N)N=C(N)N [metformin] | – | – | about 1% | –
3 | CC(C)[C@H]1CC[C@H](C(=O)N[C@H](Cc2ccccc2)C(=O)O)CC1 [nateglinide] | – | – | – | 0.6
4 | CCc1ccc(CCOc2ccc(CC3SC(=O)NC3=O)cc2)nc1 (stereo not drawn) [pioglitazone] | -28 | −0.14 | – | –
